“Also recorded” adds a separate entry of the source. Square brackets hold non-standard residues; d marks the D form. Peptide text beside a SMILES is read from it. Dap = NC[C@H](N)C(=O)O

The values below come from article PMC5639694 (Journal of medicinal chemistry, 2017).

In assay [1] the target is mouse melanocortin 5 receptor (mouse) (UniProt P41149).
Assay [2] concerns the target mouse melanocortin 4 receptor (mouse) (UniProt P56450).
The target of a further assay is mMC3R (Mus musculus, UniProt P33033). The assay is described as follows: AlphaScreen cAMP agonist assay, HEK293 cells stably expressing mMC3R. Conditions: for mMC3R partial agonist, percent maximal NDP stimulation: PA, relative to maximal NDP-MSH response; for mMC3R agonist activity/efficacy in words: concentrations up to 100 μM, full agonist = >90% maximal NDP-MSH stimulation. A general note: Alpha assays give light when donor and acceptor beads are brought close together.

The target of the next assay is mMC1R (Mus musculus, UniProt Q01727). The assay is described as follows: AlphaScreen cAMP agonist assay, HEK293 cells stably expressing mMC1R. The note with it: for mMC1R agonist activity/efficacy in words: full agonist = >90% maximal NDP-MSH stimulation; for selectivity for the mMC1R over the mMC3R: agonist potency ratio.
The next assay deals with mMC5R (Mus musculus, UniProt P41149). Briefly: AlphaScreen cAMP agonist assay, HEK293 cells stably expressing mMC5R. The note with it: for selectivity for the mMC5R over the mMC3R: agonist potency ratio; for mMC5R agonist activity/efficacy in words: concentrations up to 100 μM, full agonist = >90% maximal NDP-MSH stimulation.
The next assay has as its target mMC4R (Mus musculus, UniProt P56450). The assay is described as follows: AlphaScreen cAMP agonist assay, HEK293 cells stably expressing mMC4R. Conditions: for selectivity for the mMC4R over the mMC3R: agonist potency ratio; for mMC4R agonist activity/efficacy in words: concentrations up to 100 μM, full agonist = >90% maximal NDP-MSH stimulation.
The target of assay [3] is mouse melanocortin 1 receptor (mouse) (UniProt Q01727).
mouse melanocortin 1 receptor (mouse), sequence (Q01727 whole entry): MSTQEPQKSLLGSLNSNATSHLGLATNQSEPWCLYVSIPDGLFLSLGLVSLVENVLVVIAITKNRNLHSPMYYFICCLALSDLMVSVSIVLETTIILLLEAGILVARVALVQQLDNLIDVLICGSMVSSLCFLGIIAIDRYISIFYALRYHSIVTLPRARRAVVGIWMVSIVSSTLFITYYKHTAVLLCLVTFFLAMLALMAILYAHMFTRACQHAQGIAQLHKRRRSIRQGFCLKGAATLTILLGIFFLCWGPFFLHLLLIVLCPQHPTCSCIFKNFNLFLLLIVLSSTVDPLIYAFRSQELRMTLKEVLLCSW

mMC1R, sequence (Q01727 whole entry): as above
mouse melanocortin 4 receptor (mouse), sequence (P56450 whole entry): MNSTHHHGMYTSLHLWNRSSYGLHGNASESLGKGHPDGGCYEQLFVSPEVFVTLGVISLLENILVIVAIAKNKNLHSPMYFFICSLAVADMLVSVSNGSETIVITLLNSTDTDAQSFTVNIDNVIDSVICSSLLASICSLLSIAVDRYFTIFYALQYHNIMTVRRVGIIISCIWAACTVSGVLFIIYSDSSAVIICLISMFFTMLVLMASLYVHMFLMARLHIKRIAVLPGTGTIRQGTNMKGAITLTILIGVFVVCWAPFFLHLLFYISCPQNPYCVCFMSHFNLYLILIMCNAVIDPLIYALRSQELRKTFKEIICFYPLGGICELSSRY
mMC4R, sequence (P56450 whole entry): as above
mMC3R, sequence (P33033 whole entry): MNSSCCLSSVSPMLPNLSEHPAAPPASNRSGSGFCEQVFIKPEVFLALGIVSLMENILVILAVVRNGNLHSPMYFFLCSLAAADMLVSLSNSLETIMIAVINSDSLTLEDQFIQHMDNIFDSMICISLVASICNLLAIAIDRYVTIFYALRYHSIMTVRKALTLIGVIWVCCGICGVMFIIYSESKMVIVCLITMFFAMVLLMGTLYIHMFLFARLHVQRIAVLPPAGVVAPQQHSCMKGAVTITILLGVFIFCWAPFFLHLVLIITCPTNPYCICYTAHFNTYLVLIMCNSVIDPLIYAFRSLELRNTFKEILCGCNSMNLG
mouse melanocortin 5 receptor (mouse), sequence (P41149 whole entry): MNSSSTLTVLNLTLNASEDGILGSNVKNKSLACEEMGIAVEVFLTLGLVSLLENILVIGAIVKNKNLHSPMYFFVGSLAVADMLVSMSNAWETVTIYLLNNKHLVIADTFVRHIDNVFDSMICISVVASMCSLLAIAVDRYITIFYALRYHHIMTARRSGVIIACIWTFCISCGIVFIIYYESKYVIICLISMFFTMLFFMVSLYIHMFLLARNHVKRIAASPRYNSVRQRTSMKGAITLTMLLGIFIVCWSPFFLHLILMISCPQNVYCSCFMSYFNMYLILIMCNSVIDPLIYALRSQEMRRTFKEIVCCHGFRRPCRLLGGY
mMC5R, sequence (P41149 whole entry): as above

With cyclo(P[dF]RW[Dap]A[dP]), the results for the agonist EC50 (cAMP AlphaScreen, HEK293 cells stably expressing the receptor) in assay [1] and in assay [2] were 48 nM and 150 nM, respectively.
As to `N=C(N)NCCC[C@@H]1NC(=O)[C@@H](Cc2ccccc2)NC(=O)[C@H](Cc2c[nH]cn2)NC(=O)[C@@H]2CCCN2C(=O)[C@H]2CCCN2C(=O)[C@H](CC(N)=O)NC(=O)[C@H](Cc2c[nH]c3ccccc23)NC1=O` [Peptide 3, c[Pro-His-DPhe-Arg-Trp-Asn-DPro]] (cyclo(PH[dF]RWN[dP])), the “mMC3R partial agonist, percent maximal NDP stimulation” value on mMC3R worked out at 65%. Moreover, the “decreased agonist potency at mMC1R relative to 1” value on mMC1R is reported as 140 fold. The “decreased agonist potency at mMC5R relative to 1” value on mMC5R stood at 37 fold. The “decreased agonist potency at mMC4R relative to 1” value on mMC4R is given as 120 fold.
For `C[C@@H]1NC(=O)[C@H](CN)NC(=O)[C@H](Cc2c[nH]c3ccccc23)NC(=O)[C@H](CCCNC(=N)N)NC(=O)[C@@H](Cc2ccccc2)NC(=O)[C@@H]2CCCN2C(=O)[C@H]2CCCN2C1=O` [Peptide 12, c[Pro-DPhe-Arg-Trp-Dap-Ala-DPro]] (cyclo(P[dF]RW[Dap]A[dP])), the “mMC3R agonist activity/efficacy in words” value at mMC3R is “partially stimulated”. Besides, the “mMC1R agonist activity/efficacy in words” value on mMC1R is given as “full agonist efficacy; also recorded: full mMC1R agonists”. Besides, the “selectivity for the mMC5R over the mMC3R” value on mMC5R is reported as over 1000 fold. Further, the “selectivity for the mMC4R over the mMC3R” value on mMC4R is given as over 300 fold.
For `C[C@@H]1NC(=O)[C@H](CN)NC(=O)[C@H](Cc2c[nH]c3ccccc23)NC(=O)[C@H](CCCNC(=N)N)NC(=O)[C@@H](Cc2ccccc2)NC(=O)[C@@H]2CCCN2C(=O)[C@H]2CCCN2C(=O)[C@H](Cc2ccccc2)NC1=O` [Peptide 11, c[Pro-DPhe-Arg-Trp-Dap-Ala-Phe-DPro]] (cyclo(P[dF]RW[Dap]AF[dP])), the “mMC3R agonist activity/efficacy in words” value on mMC3R is on record as “partial agonist”. Moreover, on mMC1R, the “mMC1R agonist activity/efficacy in words” value is reported as “partial agonist”. For the same molecule, the “mMC5R agonist activity/efficacy in words” value at mMC5R is on record as “full agonist efficacy”. On mMC4R, the “mMC4R agonist activity/efficacy in words” value is on record as “full agonist efficacy”.
Regarding `C[C@@H]1NC(=O)[C@H](CC(N)=O)NC(=O)[C@H](Cc2c[nH]c3ccccc23)NC(=O)[C@H](CCCNC(=N)N)NC(=O)[C@@H](Cc2ccccc2)NC(=O)[C@@H]2CCCN2C(=O)[C@H]2CCCN2C(=O)[C@H](Cc2ccccc2)NC1=O` [Peptide 8, c[Pro-DPhe-Arg-Trp-Asn-Ala-Phe-DPro]] (cyclo(P[dF]RWNAF[dP])), the “mMC3R agonist activity/efficacy in words” value at mMC3R is recorded as “partially stimulated”. At mMC1R, the “selectivity for the mMC1R over the mMC3R” value is reported as over 100 fold, the “mMC1R agonist activity/efficacy in words” value is listed as “full mMC1R agonists” and the “decreased agonist potency at mMC1R relative to 1” value amounted to 1140 fold. For the same molecule, at mMC5R, the “selectivity for the mMC5R over the mMC3R” value was over 1000 fold and the “decreased agonist potency at mMC5R relative to 1” value amounted to 90 fold. Moreover, at mMC4R, the “selectivity for the mMC4R over the mMC3R” value is listed as over 300 fold and the “decreased agonist potency at mMC4R relative to 1” value is given as 90 fold.
As for cyclo(P[dF]RW[Dap]AF[dP]), the agonist EC50 (cAMP AlphaScreen, HEK293 cells stably expressing the receptor) in assay [1] stood at 46 nM.
On to `C[C@@H]1NC(=O)[C@H](CC(N)=O)NC(=O)[C@H](Cc2c[nH]c3ccccc23)NC(=O)[C@H](CCCNC(=N)N)NC(=O)[C@@H](Cc2ccccc2)NC(=O)[C@H](Cc2c[nH]cn2)NC(=O)[C@@H]2CCCN2C(=O)[C@H]2CCCN2C(=O)[C@H](Cc2ccccc2)NC1=O` [Peptide 1, c[Pro-His-DPhe-Arg-Trp-Asn-Ala-Phe-DPro]] (cyclo(H[dF]RWNAF[dP]P)), for which, at mMC4R, the “mMC4R agonist activity/efficacy in words” value is on record as “full agonists”.
Consider `C[C@@H]1NC(=O)[C@H](CN)NC(=O)[C@H](Cc2c[nH]c3ccccc23)NC(=O)[C@H](CCCNC(=N)N)NC(=O)[C@@H](Cc2ccccc2)NC(=O)[C@H](Cc2c[nH]cn2)NC(=O)[C@@H]2CCCN2C(=O)[C@H]2CCCN2C(=O)[C@H](Cc2ccccc2)NC1=O` [Peptide 4, c[Pro-His-DPhe-Arg-Trp-Dap-Ala-Phe-DPro]] (cyclo(PH[dF]RW[Dap]AF[dP])), for which the “mMC3R agonist activity/efficacy in words” value at mMC3R was “full agonist”. For the same molecule, on mMC1R, the “mMC1R agonist activity/efficacy in words” value is “full agonist” and the “decreased agonist potency at mMC1R relative to 1” value is given as 70 fold. Besides, the “mMC4R partial agonist, percent maximal NDP stimulation” value at mMC4R (PA, relative to maximal NDP-MSH response) was determined as 70%. The “mMC4R agonist activity/efficacy in words” value at mMC4R is listed as “partial agonist”.
As for `C[C@@H]1NC(=O)[C@H](CC(N)=O)NC(=O)[C@H](Cc2c[nH]c3ccccc23)NC(=O)[C@H](CCCNC(=N)N)NC(=O)[C@@H](Cc2ccccc2)NC(=O)[C@@H]2CCCN2C(=O)[C@H]2CCCN2C1=O` [Peptide 9, c[Pro-DPhe-Arg-Trp-Asn-Ala-DPro]] (cyclo(P[dF]RWNA[dP])), the “mMC3R agonist activity/efficacy in words” value on mMC3R is recorded as “partially stimulated”. At mMC1R, the “selectivity for the mMC1R over the mMC3R” value is over 100 fold and the “mMC1R agonist activity/efficacy in words” value is given as “full mMC1R agonists”. Also, the “selectivity for the mMC5R over the mMC3R” value at mMC5R is recorded as over 1000 fold.
On to `N=C(N)NCCC[C@@H]1NC(=O)[C@@H](Cc2ccccc2)NC(=O)[C@@H]2CCCN2C(=O)[C@H]2CCCN2C(=O)[C@H](CC(N)=O)NC(=O)[C@H](Cc2c[nH]c3ccccc23)NC1=O` [Peptide 10, c[Pro-DPhe-Arg-Trp-Asn-DPro]] (cyclo(P[dF]RWN[dP])), for which the “mMC3R agonist activity/efficacy in words” value on mMC3R is on record as “no agonist activity; also recorded: did not possess agonist activity”. The “mMC5R agonist activity/efficacy in words” value at mMC5R is “partially stimulated”.
As to `N=C(N)NCCC[C@@H]1NC(=O)[C@@H](Cc2ccccc2)NC(=O)[C@H](Cc2c[nH]cn2)NC(=O)[C@@H]2CCCN2C(=O)[C@H]2CCCN2C(=O)[C@H](CN)NC(=O)[C@H](Cc2c[nH]c3ccccc23)NC1=O` [Peptide 6, c[Pro-His-DPhe-Arg-Trp-Dap-DPro]] (cyclo(PH[dF]RW[Dap][dP])), the “mMC3R agonist activity/efficacy in words” value on mMC3R is given as “partially stimulated”. Also, at mMC1R, the “selectivity for the mMC1R over the mMC3R” value is reported as over 100 fold. Further, on mMC1R (relative to 5), the “decreased agonist potency at mMC1R relative to 5” value is 420 fold. In addition, the “selectivity for the mMC5R over the mMC3R” value on mMC5R is listed as over 100 fold. Moreover, the “decreased agonist potency at mMC5R relative to 5” value on mMC5R (relative to 5) is on record as 1,100 fold. Also, the “decreased agonist potency at mMC4R relative to 5” value at mMC4R (relative to 5) was determined as 590 fold.
Turning to `N=C(N)NCCC[C@@H]1NC(=O)[C@@H](Cc2ccccc2)NC(=O)[C@@H]2CCCN2C(=O)[C@H]2CCCN2C(=O)[C@H](CN)NC(=O)[C@H](Cc2c[nH]c3ccccc23)NC1=O` [Peptide 13, c[Pro-DPhe-Arg-Trp-Dap-DPro]] (cyclo(P[dF]RW[Dap][dP])), the “mMC3R agonist activity/efficacy in words” value at mMC3R was “no observable activity; also recorded: did not possess agonist activity; also recorded: no agonist activity”. Moreover, the “mMC5R agonist activity/efficacy in words” value on mMC5R is “no observable activity; also recorded: unable to stimulate; also recorded: no agonist activity”. Besides, on mMC4R, the “mMC4R agonist activity/efficacy in words” value was “partially stimulated”.
For `C[C@@H]1NC(=O)[C@H](CC(N)=O)NC(=O)[C@H](Cc2c[nH]c3ccccc23)NC(=O)[C@H](CCCNC(=N)N)NC(=O)[C@@H](Cc2ccccc2)NC(=O)[C@H](Cc2c[nH]cn2)NC(=O)[C@@H]2CCCN2C(=O)[C@H]2CCCN2C1=O` [Peptide 2, c[Pro-His-DPhe-Arg-Trp-Asn-Ala-DPro]] (cyclo(PH[dF]RWNA[dP])), the “mMC3R partial agonist, percent maximal NDP stimulation” value on mMC3R stood at 85%. In addition, the “decreased agonist potency at mMC1R relative to 1” value at mMC1R came to 34 fold. In addition, the “decreased agonist potency at mMC5R relative to 1” value on mMC5R turned out to be 5 fold. The “decreased agonist potency at mMC4R relative to 1” value on mMC4R is on record as 21 fold.
As for `N=C(N)NCCC[C@@H]1NC(=O)[C@@H](Cc2ccccc2)NC(=O)[C@H](Cc2c[nH]cn2)NC(=O)[C@@H]2CCCN2C(=O)[C@H]2CCCN2C(=O)[C@H](Cc2c[nH]c3ccccc23)NC1=O` [Peptide 7, c[Pro-His-DPhe-Arg-Trp-DPro]] (cyclo(PH[dF]RW[dP])), on mMC3R, the “mMC3R agonist activity/efficacy in words” value was “partially stimulated”.
For `C[C@@H]1NC(=O)[C@H](CN)NC(=O)[C@H](Cc2c[nH]c3ccccc23)NC(=O)[C@H](CCCNC(=N)N)NC(=O)[C@@H](Cc2ccccc2)NC(=O)[C@H](Cc2c[nH]cn2)NC(=O)[C@@H]2CCCN2C(=O)[C@H]2CCCN2C1=O` [Peptide 5, c[Pro-His-DPhe-Arg-Trp-Dap-Ala-DPro]] (cyclo(H[dF]RW[Dap]A[dP]P)), the “selectivity for the mMC5R over the mMC3R” value on mMC5R is over 100 fold. Moreover, the “mMC4R agonist activity/efficacy in words” value on mMC4R is listed as “fully stimulate; also recorded: full agonists”.

B1: c[Pro-DPhe-Arg-Trp-Asn-Ala-DPro] (peptide)
peptide: cyclo(P[dF]RWNA[dP])
SMILES: C[C@@H]1NC(=O)[C@H](CC(N)=O)NC(=O)[C@H](Cc2c[nH]c3ccccc23)NC(=O)[C@H](CCCNC(=N)N)NC(=O)[C@@H](Cc2ccccc2)NC(=O)[C@@H]2CCCN2C(=O)[C@H]2CCCN2C1=O
B1: in assay [2], the agonist EC50 (cAMP AlphaScreen, HEK293 cells stably expressing the receptor) was 420 nM.
With cyclo(PH[dF]RWN[dP]) [c[Pro-His-DPhe-Arg-Trp-Asn-DPro]], the agonist EC50 (cAMP AlphaScreen, HEK293 cells stably expressing the receptor) worked out at 16.8 nM in assay [1] and 170 nM in assay [2].

B2: c[Pro-DPhe-Arg-Trp-DPro] (peptide)
peptide: cyclo(P[dF]RW[dP])
SMILES: N=C(N)NCCC[C@@H]1NC(=O)[C@@H](Cc2ccccc2)NC(=O)[C@@H]2CCCN2C(=O)[C@H]2CCCN2C(=O)[C@H](Cc2c[nH]c3ccccc23)NC1=O
As to B2, the agonist EC50 (cAMP AlphaScreen, HEK293 cells stably expressing the receptor) in assay [3] was 1800 nM.

B3: c[Pro-DPhe-Arg-Trp-Asn-Ala-Phe-DPro] (peptide)
peptide: cyclo(P[dF]RWNAF[dP])
SMILES: C[C@@H]1NC(=O)[C@H](CC(N)=O)NC(=O)[C@H](Cc2c[nH]c3ccccc23)NC(=O)[C@H](CCCNC(=N)N)NC(=O)[C@@H](Cc2ccccc2)NC(=O)[C@@H]2CCCN2C(=O)[C@H]2CCCN2C(=O)[C@H](Cc2ccccc2)NC1=O
B3: the agonist EC50 (cAMP AlphaScreen, HEK293 cells stably expressing the receptor) in assay [2] came out at 130 nM.
